US10913738B2 (BRISTOL-MYERS SQUIBB COMPANY, priority 2017, dated 2021)
pIC50: −log10 of the molar value. Like-named read-outs stand apart in the source and are kept apart here.

Legend:
[1] = molecular target: T1, His-GST-TVMV-hRIPK1(1-324) (Homo sapiens, UniProt Q13546); assay: RIPK1 HTRF Binding Assay
T1 construct: The coding region of human RIPK1(1-324) flanked by NdeI site at 5′ end; made in house; host or cells: Spodoptera frugiperda (Sf9) insect cells, baculovirus
T1 sequence (Q13546 1-324): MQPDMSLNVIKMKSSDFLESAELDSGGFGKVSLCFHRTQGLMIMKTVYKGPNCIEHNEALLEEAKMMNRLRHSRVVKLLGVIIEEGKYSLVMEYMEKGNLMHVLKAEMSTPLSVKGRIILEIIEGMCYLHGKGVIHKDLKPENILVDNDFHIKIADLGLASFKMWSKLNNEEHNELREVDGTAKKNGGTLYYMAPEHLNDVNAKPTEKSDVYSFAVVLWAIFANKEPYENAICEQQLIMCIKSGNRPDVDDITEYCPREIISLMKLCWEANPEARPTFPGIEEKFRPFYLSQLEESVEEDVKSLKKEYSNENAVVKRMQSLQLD

[2] = test system: MLKL phosphorylation in HT29-L23 human colorectal adenocarcinoma cells; assay: MLKL Phosphorylation High-Content Assay; type: cell-based; details: Homo sapiens
Method in brief: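 Cells incubated six hours at 37° C., then phospho-MLKL (S358) immunostained overnight at 4° C. and imaged by high-content microscopy. Phosphorylation quantified as mean circ-ring average intensity ratio; IC50 and Ymax from 4-parameter logistic fits.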

[3] = x marks IC50 class <20 nM, read-out: RIPK1 HTRF binding <20 nM
[4] = x marks IC50 class 20-200 nM, read-out: pMLKL cell activity 20-200 nM
[5] = x marks IC50 class <20 nM, read-out: pMLKL cell activity <20 nM
[6] = x marks IC50 class 20-200 nM, read-out: RIPK1 HTRF binding 20-200 nM
[7] = x marks IC50 class >200 nM, read-out: pMLKL cell activity >200 nM

Q: What does the source list for `COc1ncc(-c2ccn3nc(N)nc3c2)cc1C(=O)NCc1cnccc1OC1CCCC1` [Example 21, 5-{2-Amino-[1,2,4]triazolo[1,5-a]pyridin-7-yl}-N-{[4-(cyclopentyloxy)pyridin-3-yl]methyl}-2-methoxypyridine-3-carboxamide]?
A: pIC50 [1, 3]: > 7.70; pIC50 [2, 4]: 6.70 to 7.70

Q: With `COc1ncc(-c2ccn3nc(N)nc3c2)cc1C(=O)NCc1cc(F)cc(F)c1OC(C)C` [Example 22, 5-{2-Amino-[1,2,4]triazolo[1,5-a]pyridin-7-yl}-N-{[3,5-difluoro-2-(propan-2-yloxy)phenyl]methyl}-2-methoxypyridine-3-carboxamide] as the compound, how does the pIC50 [1, 3] read?
A: The pIC50 was greater than 7.70.

Q: What about the pIC50 [2, 5] of the same compound?
A: The pIC50 was greater than 7.70.

Q: With `COc1ncc(-c2ccn3nc(N)nc3c2)cc1C(=O)NCc1c(F)cccc1OC1CCC(C)C1` (stereo not drawn) [Example 23, 5-{2-Amino-[1,2,4]triazolo[1,5-a]pyridin-7-yl}-N-({2-fluoro-6-[(3-methylcyclopentyl)oxy]phenyl}methyl)-2-methoxypyridine-3-carboxamide] as the compound, how does the pIC50 [1, 3] read?
A: The pIC50 was greater than 7.70.

Q: What about the pIC50 [2, 5] of the same compound?
A: The pIC50 was greater than 7.70.

Q: What does the source list for `Cc1ncc(-c2ccn3nc(N)nc3c2)cc1C(=O)NCc1ccc(F)cc1OCC1CC1` [Example 24, 5-{2-Amino-[1,2,4]triazolo[1,5-a]pyridin-7-yl}-N-{[2-(cyclopropylmethoxy)-4-fluorophenyl]methyl}-2-methylpyridine-3-carboxamide]?
A: pIC50 [1, 6]: 6.70 to 7.70; pIC50 [2, 7]: < 6.70

Q: How did the pIC50 [1, 3] turn out when `COc1ncc(C(=O)NCc2c(F)cccc2OCC2CCC2)cc1-c1ccn2nc(N)nc2c1` [Example 25, 5-{2-Amino-[1,2,4]triazolo[1,5-a]pyridin-7-yl}-N-{[2-(cyclobutylmethoxy)-6-fluorophenyl]methyl}-6-methoxypyridine-3-carboxamide] was run?
A: Its pIC50 is greater than 7.70.

Q: And the pIC50 [2, 4]?
A: The pIC50 was 6.70 to 7.70.

Q: With `COc1ncc(C(=O)NCc2c(F)cccc2OCC2CC2)cc1-c1ccn2nc(N)nc2c1` [Example 26, 5-{2-Amino-[1,2,4]triazolo[1,5-a]pyridin-7-yl}-N-{[2-(cyclopropylmethoxy)-6-fluorophenyl]methyl}-6-methoxypyridine-3-carboxamide] as the compound, how does the pIC50 [1, 3] read?
A: Its pIC50 is greater than 7.70.

Q: What about the pIC50 [2, 4] of the same compound?
A: The pIC50 was 6.70 to 7.70.

Q: `COc1ncc(C(=O)NCc2cc(F)ccc2OC2CCCC2)cc1-c1ccn2nc(N)nc2c1` [Example 27, 5-{2-Amino-[1,2,4]triazolo[1,5-a]pyridin-7-yl}-N-{[2-(cyclopentyloxy)-5-fluorophenyl]methyl}-6-methoxypyridine-3-carboxamide] was tested. Which pIC50 [1, 3] did it give?
A: Its pIC50 is greater than 7.70.

Q: And the pIC50 [2, 5]?
A: The pIC50 was greater than 7.70.

Q: `COc1ncc(C(=O)NCc2ccccc2OCC2CC2)cc1-c1ccn2nc(N)nc2c1` [Example 28, 5-{2-Amino-[1,2,4]triazolo[1,5-a]pyridin-7-yl}-N-{[2-(cyclopropylmethoxy)phenyl]methyl}-6-methoxypyridine-3-carboxamide] was tested. Which pIC50 [1, 3] did it give?
A: Its pIC50 is greater than 7.70.

Q: What about the pIC50 [2, 4] of the same compound?
A: Its pIC50 is 6.70 to 7.70.

Q: With `COc1ncc(-c2ccn3nc(N)nc3c2)cc1C(=O)NCc1c(F)cccc1OC(C)C` [Example 29, 5-{2-Amino-[1,2,4]triazolo[1,5-a]pyridin-7-yl}-N-{[2-fluoro-6-(propan-2-yloxy)phenyl]methyl}-2-methoxypyridine-3-carboxamide] as the compound, how does the pIC50 [1, 3] read?
A: The pIC50 was greater than 7.70.

Q: And the pIC50 [2, 4]?
A: The pIC50 was 6.70 to 7.70.

Q: `COc1ncc(-c2ccn3nc(N)nc3c2)cc1C(=O)NCc1ccccc1O[C@@H]1C[C@H]2CC[C@@H]1C2` [Example 30, 5-{2-Amino-[1,2,4]triazolo[1,5-a]pyridin-7-yl}-N-({2-[(1R,2R,4S)-bicyclo[2.2.1]heptan-2-yloxy]phenyl}methyl)-2-methoxypyridine-3-carboxamide] was tested. Which pIC50 [1, 6] did it give?
A: Its pIC50 is 6.70 to 7.70.

Q: What about the pIC50 [2, 4] of the same compound?
A: The pIC50 was 6.70 to 7.70.

Q: What does the source list for `COc1ncc(-c2ccn3nc(N)nc3c2)cc1C(=O)NCc1cc(F)ccc1OC(C)C` [Example 31, 5-{2-Amino-[1,2,4]triazolo[1,5-a]pyridin-7-yl}-N-{[5-fluoro-2-(propan-2-yloxy)phenyl]methyl}-2-methoxypyridine-3-carboxamide]?
A: pIC50 [1, 3]: > 7.70; pIC50 [2, 4]: 6.70 to 7.70

Q: `COc1ncc(-c2ccn3nc(N)nc3c2)cc1C(=O)NCc1ccccc1OC1CCC(C)C1` (stereo not drawn) [Example 32, 5-{2-Amino-[1,2,4]triazolo[1,5-a]pyridin-7-yl}-2-methoxy-N-({2-[(3-methylcyclopentyl)oxy]phenyl}methyl)pyridine-3-carboxamide] was tested. Which pIC50 [1, 3] did it give?
A: Its pIC50 is greater than 7.70.

Q: And the pIC50 [2, 5]?
A: The pIC50 was greater than 7.70.

Q: With `COc1nc(C)c(-c2ccn3nc(N)nc3c2)cc1C(=O)NCc1ncccc1OCC1CC1` [Example 33, 5-{2-Amino-[1,2,4]triazolo[1,5-a]pyridin-7-yl}-N-{[3-(cyclopropylmethoxy)pyridin-2-yl]methyl}-2-methoxy-6-methylpyridine-3-carboxamide] as the compound, how does the pIC50 [1, 3] read?
A: Its pIC50 is greater than 7.70.

Q: And the pIC50 [2, 4]?
A: Its pIC50 is 6.70 to 7.70.

Q: What does the source list for `COc1nc(C)c(-c2ccn3nc(N)nc3c2)cc1C(=O)NCc1cccnc1OC1CCCC1` [Example 34, 5-{2-Amino-[1,2,4]triazolo[1,5-a]pyridin-7-yl}-N-{[2-(cyclopentyloxy)pyridin-3-yl]methyl}-2-methoxy-6-methylpyridine-3-carboxamide]?
A: pIC50 [1, 3]: > 7.70; pIC50 [2, 5]: > 7.70

Q: `Cc1ncc(-c2ccn3nc(N)nc3c2)cc1C(=O)NCc1ccccc1OC(C)C` [Example 35, 5-{2-Amino-[1,2,4]triazolo[1,5-a]pyridin-7-yl}-2-methyl-N-{[2-(propan-2-yloxy)phenyl]methyl}pyridine-3-carboxamide] was tested. Which pIC50 [1, 6] did it give?
A: The pIC50 was 6.70 to 7.70.

Q: And the pIC50 [2, 4]?
A: The pIC50 was 6.70 to 7.70.

Q: What does the source list for `COc1ncc(-c2ccn3nc(N)nc3c2)cc1C(=O)NCc1ncccc1OCC1CCC1` [Example 37, 5-{2-Amino-[1,2,4]triazolo[1,5-a]pyridin-7-yl}-N-{[3-(cyclobutylmethoxy)pyridin-2-yl]methyl}-2-methoxypyridine-3-carboxamide]?
A: pIC50 [1, 3]: > 7.70; pIC50 [2, 4]: 6.70 to 7.70

Q: With `Cc1ncc(-c2ccn3nc(N)nc3c2)cc1C(=O)NCc1ccccc1OCC1CCCC1` [Example 39, 5-{2-Amino-[1,2,4]triazolo[1,5-a]pyridin-7-yl}-N-{[2-(cyclopentylmethoxy)phenyl]methyl}-2-methylpyridine-3-carboxamide] as the compound, how does the pIC50 [1, 3] read?
A: Its pIC50 is greater than 7.70.

Q: And the pIC50 [2, 4]?
A: The pIC50 was 6.70 to 7.70.

Q: Which results are given for `Nc1nc2cc(-c3cncc(C(=O)NCc4c(F)cccc4OC4CCCC4)c3)ccn2n1` [Example 40, 5-{2-Amino-[1,2,4]triazolo[1,5-a]pyridin-7-yl}-N-{[2-(cyclopentyloxy)-6-fluorophenyl]methyl}pyridine-3-carboxamide]?
A: pIC50 [1, 3]: > 7.70; pIC50 [2, 4]: 6.70 to 7.70

Q: With `Nc1nc2cc(-c3cncc(C(=O)NCc4cc(F)ccc4OC4CCCC4)c3)ccn2n1` [Example 41, 5-{2-Amino-[1,2,4]triazolo[1,5-a]pyridin-7-yl}-N-{[2-(cyclopentyloxy)-5-fluorophenyl]methyl}pyridine-3-carboxamide] as the compound, how does the pIC50 [1, 3] read?
A: The pIC50 was greater than 7.70.

Q: What about the pIC50 [2, 4] of the same compound?
A: Its pIC50 is 6.70 to 7.70.

Q: What does the source list for `Nc1nc2cc(-c3cncc(C(=O)NCc4ccccc4OCC4CC4)c3)ccn2n1` [Example 42, 5-{2-Amino-[1,2,4]triazolo[1,5-a]pyridin-7-yl}-N-{[2-(cyclopropylmethoxy)phenyl]methyl}pyridine-3-carboxamide]?
A: pIC50 [1, 3]: > 7.70; pIC50 [2, 5]: > 7.70

Q: How did the pIC50 [1, 3] turn out when `Nc1nc2cc(-c3cncc(C(=O)NCc4ccccc4OC4CCCC4)c3)ccn2n1` [Example 43, 5-{2-Amino-[1,2,4]triazolo[1,5-a]pyridin-7-yl}-N-{[2-(cyclopentyloxy)phenyl]methyl}pyridine-3-carboxamide] was run?
A: The pIC50 was greater than 7.70.

Q: What about the pIC50 [2, 4] of the same compound?
A: The pIC50 was 6.70 to 7.70.

Q: With `COc1ncc(-c2ccn3nc(N)nc3c2)cc1C(=O)NCc1ccccc1OC1CCCCC1` [Example 44, 5-{2-Amino-[1,2,4]triazolo[1,5-a]pyridin-7-yl}-N-{[2-(cyclohexyloxy)phenyl]methyl}-2-methoxypyridine-3-carboxamide] as the compound, how does the pIC50 [1, 3] read?
A: Its pIC50 is greater than 7.70.

Q: What about the pIC50 [2, 4] of the same compound?
A: The pIC50 was 6.70 to 7.70.

Q: With `COc1ncc(-c2ccn3nc(N)nc3c2)cc1C(=O)NCc1cccc(OC2CCCC2)c1` [Example 45, 5-{2-Amino-[1,2,4]triazolo[1,5-a]pyridin-7-yl}-N-{[3-(cyclopentyloxy)phenyl]methyl}-2-methoxypyridine-3-carboxamide] as the compound, how does the pIC50 [1, 6] read?
A: The pIC50 was 6.70 to 7.70.

Q: What about the pIC50 [2, 7] of the same compound?
A: The pIC50 was less than 6.70.

Q: With `COc1ncc(-c2ccn3nc(N)nc3c2)cc1C(=O)NCc1cccc(OCC2CCC2)c1` [Example 46, 5-{2-Amino-[1,2,4]triazolo[1,5-a]pyridin-7-yl}-N-{[3-(cyclobutylmethoxy)phenyl]methyl}-2-methoxypyridine-3-carboxamide] as the compound, how does the pIC50 [1, 6] read?
A: Its pIC50 is 6.70 to 7.70.

Q: And the pIC50 [2, 7]?
A: The pIC50 was less than 6.70.

Q: Which results are given for `COc1ncc(-c2ccn3nc(N)nc3c2)cc1C(=O)NCc1cccc(OCC2CC2)c1` [Example 47, 5-{2-Amino-[1,2,4]triazolo[1,5-a]pyridin-7-yl}-N-{[3-(cyclopropylmethoxy)phenyl]methyl}-2-methoxypyridine-3-carboxamide]?
A: pIC50 [1, 6]: 6.70 to 7.70; pIC50 [2, 7]: < 6.70

Q: `Nc1nc2cc(-c3cnc(N)c(C(=O)NCc4c(F)cccc4OC4CCCC4)c3)ccn2n1` [Example 48, 2-Amino-5-{2-amino-[1,2,4]triazolo[1,5-a]pyridin-7-yl}-N-{[2-(cyclopentyloxy)-6-fluorophenyl]methyl}pyridine-3-carboxamide] was tested. Which pIC50 [1, 3] did it give?
A: The pIC50 was greater than 7.70.

Q: And the pIC50 [2, 5]?
A: The pIC50 was greater than 7.70.

Q: With `Nc1nc2cc(-c3cnc(N)c(C(=O)NCc4ccccc4OCC4CCC4)c3)ccn2n1` [Example 49, 2-Amino-5-{2-amino-[1,2,4]triazolo[1,5-a]pyridin-7-yl}-N-{[2-(cyclobutylmethoxy)phenyl]methyl}pyridine-3-carboxamide] as the compound, how does the pIC50 [1, 3] read?
A: Its pIC50 is greater than 7.70.

Q: What about the pIC50 [2, 4] of the same compound?
A: Its pIC50 is 6.70 to 7.70.
